Data as given in ChEMBL document CHEMBL4190253, “Synthesis of novel 5-(aroylhydrazinocarbonyl)escitalopram as cholinesterase inhibitors” (Eur J Med Chem, 2017).

Tests used:
[1] = target: Cholinesterase (Equus caballus) (UniProt P81908); experiment: Inhibition of equine serum BCHE at 0.5 mM using butyrylthiocholine iodide as substrate preincubated for 10 mins followed by substrate addition measured after 30 mins by Ellman's method relative to control
[2] = target: Acetylcholinesterase (Electrophorus electricus) (UniProt O42275); experiment: Inhibition of electric eel AChE at 0.5 mM using acetylthiocholine iodide as substrate preincubated for 10 mins followed by substrate addition measured after 30 mins by Ellman's method relative to control
Sequence of Acetylcholinesterase (Electrophorus electricus) (O42275 24-633 limits assumed): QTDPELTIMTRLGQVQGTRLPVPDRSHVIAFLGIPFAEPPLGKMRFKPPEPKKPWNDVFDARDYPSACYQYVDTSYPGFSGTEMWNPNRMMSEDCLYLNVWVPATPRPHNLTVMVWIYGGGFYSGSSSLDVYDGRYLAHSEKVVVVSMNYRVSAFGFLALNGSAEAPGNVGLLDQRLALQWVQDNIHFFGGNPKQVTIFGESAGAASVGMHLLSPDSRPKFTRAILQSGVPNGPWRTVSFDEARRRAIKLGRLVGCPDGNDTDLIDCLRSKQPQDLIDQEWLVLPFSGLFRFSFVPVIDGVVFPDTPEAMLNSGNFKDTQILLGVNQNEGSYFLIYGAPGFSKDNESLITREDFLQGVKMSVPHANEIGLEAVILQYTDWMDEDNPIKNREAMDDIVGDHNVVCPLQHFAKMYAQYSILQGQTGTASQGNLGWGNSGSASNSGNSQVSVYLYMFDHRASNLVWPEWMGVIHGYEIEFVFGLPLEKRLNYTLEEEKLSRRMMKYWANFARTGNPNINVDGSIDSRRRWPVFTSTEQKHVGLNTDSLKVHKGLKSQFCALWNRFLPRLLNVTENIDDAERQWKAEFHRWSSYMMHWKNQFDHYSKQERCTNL

[3] = target: Cholinesterase (Equus caballus, UniProt P81908); experiment: Inhibition of equine serum BCHE using butyrylthiocholine iodide as substrate preincubated for 10 mins followed by substrate addition measured after 30 mins by Ellman's method
Sequence of Cholinesterase (P81908 whole entry): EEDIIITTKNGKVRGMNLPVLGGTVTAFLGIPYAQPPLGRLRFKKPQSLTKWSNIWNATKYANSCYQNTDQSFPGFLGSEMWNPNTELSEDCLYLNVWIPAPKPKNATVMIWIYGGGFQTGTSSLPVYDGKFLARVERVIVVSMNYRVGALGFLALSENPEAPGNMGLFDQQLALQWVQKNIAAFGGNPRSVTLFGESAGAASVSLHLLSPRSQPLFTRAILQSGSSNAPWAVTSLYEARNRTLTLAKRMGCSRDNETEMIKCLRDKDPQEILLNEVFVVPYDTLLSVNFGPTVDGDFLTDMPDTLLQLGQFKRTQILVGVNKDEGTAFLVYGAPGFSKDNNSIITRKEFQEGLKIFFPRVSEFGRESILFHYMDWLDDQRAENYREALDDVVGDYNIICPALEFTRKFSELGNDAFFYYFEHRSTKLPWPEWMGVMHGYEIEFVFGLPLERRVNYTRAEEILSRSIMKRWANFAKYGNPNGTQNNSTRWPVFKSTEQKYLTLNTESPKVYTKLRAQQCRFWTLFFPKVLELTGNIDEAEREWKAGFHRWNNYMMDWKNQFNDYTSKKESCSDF

[4] = Selectivity ratio of IC50 for electric eel AChE to IC50 for equine serum BCHE
[5] = target: Acetylcholinesterase (Electrophorus electricus, UniProt O42275); experiment: Inhibition of electric eel AChE using acetylthiocholine iodide as substrate preincubated for 10 mins followed by substrate addition measured after 30 mins by Ellman's method
Sequence of Acetylcholinesterase (O42275 whole entry): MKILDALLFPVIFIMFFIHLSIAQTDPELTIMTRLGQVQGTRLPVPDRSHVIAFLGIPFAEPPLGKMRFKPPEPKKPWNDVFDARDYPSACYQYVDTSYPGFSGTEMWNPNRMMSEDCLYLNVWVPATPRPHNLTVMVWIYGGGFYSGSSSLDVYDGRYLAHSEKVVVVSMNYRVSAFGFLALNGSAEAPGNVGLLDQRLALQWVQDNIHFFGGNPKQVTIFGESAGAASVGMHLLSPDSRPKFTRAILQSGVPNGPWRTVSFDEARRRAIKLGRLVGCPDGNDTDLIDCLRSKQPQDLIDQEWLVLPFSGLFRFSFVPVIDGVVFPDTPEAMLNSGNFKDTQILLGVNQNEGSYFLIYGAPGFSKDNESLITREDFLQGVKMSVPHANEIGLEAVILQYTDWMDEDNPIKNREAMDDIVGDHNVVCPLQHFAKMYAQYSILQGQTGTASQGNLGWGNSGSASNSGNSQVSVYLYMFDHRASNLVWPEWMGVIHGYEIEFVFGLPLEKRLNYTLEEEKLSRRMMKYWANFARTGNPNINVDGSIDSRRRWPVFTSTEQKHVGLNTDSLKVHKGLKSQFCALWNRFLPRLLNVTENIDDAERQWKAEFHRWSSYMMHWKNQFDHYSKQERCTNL

Sequence of Cholinesterase (Equus caballus) (P81908 whole entry): as the sequence (P81908 whole entry) above

| SMILES | inhibition [1] [%] | inhibition [2] [%] | IC50 [3] [µM] | Ratio IC50 [4] | IC50 [5] [µM] |
| --- | --- | --- | --- | --- | --- |
| CN(C)CCCC1(c2ccc(F)cc2)OCc2cc(C(=O)NNC(=O)c3ccccc3[N+](=O)[O-])ccc21 (stereo unspecified) | 84.1 | 70.3 | 76.3 | 3.35 | 256 |
| CN(C)CCCC1(c2ccc(F)cc2)OCc2cc(C(=O)NNC(=O)c3ccccc3N)ccc21 (stereo unspecified) | 84.4 | 84.5 | 68.2 | 1.72 | 118 |
| COc1ccccc1C(=O)NNC(=O)c1ccc2c(c1)COC2(CCCN(C)C)c1ccc(F)cc1 (stereo unspecified) | 88.8 | 88.6 | 130 | 0.35 | 45.8 |
| CN(C)CCCC1(c2ccc(F)cc2)OCc2cc(C(=O)NNC(=O)c3ccc(Cl)cc3)ccc21 (stereo unspecified) | 78.4 | 86.1 | 138 | 0.04 | 6.71 |
| CN(C)CCCC1(c2ccc(F)cc2)OCc2cc(C(=O)NNC(=O)c3ccc([N+](=O)[O-])cc3)ccc21 (stereo unspecified) | 74.6 | 75.8 | 169 | 0.74 | 125 |
| CN(C)CCCC1(c2ccc(F)cc2)OCc2cc(C(=O)NNC(=O)c3ccc(I)cc3)ccc21 (stereo unspecified) | 85.5 | 76.4 | 5.88 | 35.7 | 210 |
| COc1cc(C(=O)NNC(=O)c2ccc3c(c2)COC3(CCCN(C)C)c2ccc(F)cc2)ccc1O (stereo unspecified) | 84.1 | 81.3 | 76.9 | 1.45 | 112 |
| CN(C)CCCC1(c2ccc(F)cc2)OCc2cc(C(=O)NNC(=O)c3ccccc3Br)ccc21 (stereo unspecified) | 84.1 | 85.2 | 2.11 | 3.7 | 7.81 |
| CN(C)CCCC1(c2ccc(F)cc2)OCc2cc(C(=O)NNC(=O)c3cccc(Cl)c3)ccc21 (stereo unspecified) | 84 | 93.5 | 3.9 | 0.46 | 1.8 |
| CN(C)CCCC1(c2ccc(F)cc2)OCc2cc(C(=O)NNC(=O)c3ccccc3)ccc21 (stereo unspecified) | 81.5 | 69.8 | 75.8 | 3.53 | 268 |
| Cc1ccc(C(=O)NNC(=O)c2ccc3c(c2)COC3(CCCN(C)C)c2ccc(F)cc2)cc1 (stereo unspecified) | 76.6 | 69.7 | 158 | 1.69 | 268 |
| CN(C)CCCC1(c2ccc(F)cc2)OCc2cc(C(=O)NNC(=O)c3ccccc3Cl)ccc21 (stereo unspecified) | 85.4 | 81.4 | 69.3 | 1.67 | 116 |
| CN(C)CCCC1(c2ccc(F)cc2)OCc2cc(C(=O)NNC(=O)c3ccccc3F)ccc21 (stereo unspecified) | 85.5 | 84.4 | 71.4 | 1.55 | 111 |
| CN(C)CCCC1(c2ccc(F)cc2)OCc2cc(C(=O)NNC(=O)c3ccc(N)cc3)ccc21 (stereo unspecified) | 85.5 | 83.2 | 5.98 | 21.6 | 129 |
| Cc1cccc(C(=O)NNC(=O)c2ccc3c(c2)COC3(CCCN(C)C)c2ccc(F)cc2)c1 (stereo unspecified) | 85.7 | 82.6 | 88.7 | 1.32 | 117 |
| Cc1ccccc1C(=O)NNC(=O)c1ccc2c(c1)COC2(CCCN(C)C)c1ccc(F)cc1 (stereo unspecified) | 72.4 | 83.4 | 233 | 0.49 | 115 |
| CN(C)CCCC1(c2ccc(F)cc2)OCc2cc(C(=O)NNC(=O)c3cccc(Br)c3)ccc21 (stereo unspecified) | 88.8 | 80.1 | 130 | 0.88 | 115 |
| CN(C)CCCC1(c2ccc(F)cc2)OCc2cc(C(=O)NNC(=O)c3ccc(O)cc3)ccc21 (stereo unspecified) | 73.2 | 84.6 | 192 | 0.61 | 117 |
| CN(C)CCCC1(c2ccc(F)cc2)OCc2cc(C(=O)NNC(=O)c3cccc(I)c3)ccc21 (stereo unspecified) | 85.4 | 83.7 | 70.2 | 1.81 | 127 |
| CN(C)CCCC1(c2ccc(F)cc2)OCc2cc(C(=O)NNC(=O)c3ccccc3I)ccc21 (stereo unspecified) | 82.6 | 81.8 | 77.9 | 1.87 | 146 |
| COc1ccc(C(=O)NNC(=O)c2ccc3c(c2)COC3(CCCN(C)C)c2ccc(F)cc2)cc1 (stereo unspecified) | 72.2 | 76.4 | 196 | 0.63 | 124 |
| CN(C)CCCC1(c2ccc(F)cc2)OCc2cc(C(=O)NNC(=O)c3ccccc3O)ccc21 (stereo unspecified) | 85.7 | 59 | 89 | 3.32 | 296 |
| CN(C)CCCC1(c2ccc(F)cc2)OCc2cc(C(=O)NNC(=O)c3ccc(F)cc3)ccc21 (stereo unspecified) | 74.6 | 86.6 | 179 | 0.63 | 112 |
| CN(C)CCCC1(c2ccc(F)cc2)OCc2cc(C(=O)NNC(=O)c3ccc(Br)cc3)ccc21 (stereo unspecified) | 76.2 | 78.3 | 190 | 0.62 | 118 |
| CN(C)CCCC1(c2ccc(F)cc2)OCc2cc(C(=O)NNC(=O)c3cccc(F)c3)ccc21 (stereo unspecified) | 73.3 | 77.1 | 185 | 0.76 | 141 |
| CN(C)CCCC1(c2ccc(F)cc2)OCc2cc(C(=O)NNC(=O)c3cccc([N+](=O)[O-])c3)ccc21 (stereo unspecified) | 73.3 | 79.3 | 185 | 0.74 | 137 |
| CNC(=O)Oc1ccc2c(c1)[C@]1(C)CCN(C)[C@@H]1N2C | 82.8 | – | – | – | – |
| CN(C)CCCC1(c2ccc(F)cc2)OCc2cc(C(=O)NNC(=O)c3cccc(O)c3)ccc21 (stereo unspecified) | 88.2 | 64.4 | 129 | 1.52 | 197 |
